Consider two compounds from US20120129817A1, “COMBINATION TREATMENT FOR DIABETES MELLITUS” (NYCOMED GMBH, priority 2006, published 2012).

SMILES strings stand for the structures. Structures can show the parent of a compound that is named as a salt.

For assay [1], the system named is db/db-mice. Nature of the assay: HbA1c levels in db/db-mice after 4 weeks of once daily oral treatment (Micromat II Hemoglobin A1c Test). The class given is in vivo. The note with it: female obese db/db-mice; Compound A 3 mg/kg orally, RIMONABANT Hydrochloride 10 mg/kg orally or combination of both, once daily for 4 weeks; vs vehicle; FIG. 1. The procedure:
(§1) Aim of the study was to investigate the influence of a combination of RIMONABANT Hydrochloride and Compound A on HbA1c and glucose tolerance.
(§2) Female obese db/db-mice (BKS.Cg/BomTac-m+/+Lepr^db), supplied by Taconic Europe (Denmark) were used at the age of 10-11 weeks. Animals were kept under controlled conditions (22° C., 12 h light/12 h dark cycle) and received standard laboratory chow and water ad libitum. For each group a number of 15 animals were used.
(§3) Animals were treated with Compound A [3 mg/kg orally, suspended in methocel (hypromellose, 4% aequous solution)], RIMONABANT Hydrochloride [10 mg/kg orally, suspended in methocel (hypromellose, 4% aequous solution), Sequoia Research Products, Pangbourne, UK] or a combination of both once daily for 4 weeks. Vehicle treated animals served as control. HbA1c levels were analyzed using the Micromat II Hemoglobin A1c Test (Bio-Rad Laboratories GmbH, 80939 München, Germany). An intraperitoneal glucose tolerance test was performed in 24 h fasted animals. A glucose bolus (1 g/kg body weight) was administered intraperitoneally. Blood glucose was monitored for the following time points: t=−120 min, 0 min (before glucose administration), 30 min, 60 min, 90 min, 120 min (after glucose administration). Blood was taken by tail-tip-bleeding (5 μl) and was determined from hemolysate using an analyzing machine (Biosen S_line, EKF Diagnostic, Germany). […]

Assay [2] relates to db/db-mice. Description: Intraperitoneal glucose tolerance test in 24 h fasted db/db-mice after 4 weeks of treatment. The class given is in vivo. Conditions: female obese db/db-mice, glucose bolus 1 g/kg i.p., Compound A 3 mg/kg orally, RIMONABANT Hydrochloride 10 mg/kg orally or combination of both, once daily for 4 weeks, FIG. 2. As for the experimental part:
as §1, §2, §3

Consider `Cc1c(C(=O)NN2CCCCC2)nn(-c2ccc(Cl)cc2Cl)c1-c1ccc(Cl)cc1` [RIMONABANT Hydrochloride, 5-(4-chlorophenyl)-1-(2,4-dichlorophenyl)-4-methyl-N-piperidin-1-yl-1H-pyrazole-3-carboxamide], for which the “effect on HbA1c” value with db/db-mice [1] is given as “no effect”. In addition, the “effect on glucose tolerance” value in the assay with db/db-mice [2] is listed as “no effect”.
For the compound `CCOc1cc2c(cc1OC)C(c1ccc(OC)nc1OC)=N[C@@H]1CC[C@@H](O)C[C@H]21` [Compound A, (2R,4aR,10bR)-6-(2,6-Dimethoxy-pyridin-3-yl)-9-ethoxy-8-methoxy-1,2,3,4,4a,10b-hexahydrophenanthridin-2-ol], the “effect on HbA1c” value in the assay with db/db-mice [1] is “no effect”. Also, the “effect on glucose tolerance” value with db/db-mice [2] was “no effect”.
